Converted amounts (≈) assume the structure as drawn. Where two headings read alike, the source gives them in different places.
Columns and labels:
[1] = test system: Saccharomyces cerevisiae (Sc); assay: Minimum inhibitory concentration, malt yeast agar, Saccharomyces cerevisiae; format: cell-based, Saccharomyces cerevisiae ATCC 4105; settings: read-out: Minimum Inhibitory Concentration, Sc
Description: (§1) Malt yeast agar is prepared by adding 3 g yeast extract and 45 g malt agar per liter of deionized water. The specific agar is dispensed in 30 mL aliquots into 25×200 mm test tubes, capped and autoclaved for 15 minutes at 115° C.
(§2) The inoculation with the yeast and fungi is accomplished as follows. Cultures of yeast and fungi are incubated for seven days on malt yeast agar at 30° C. These cultures are used to prepare suspensions by the following procedure. A suspension of each organism is prepared by adding 10 mL of sterile saline and 10 microliters of octylphenoxy polyethoxy ethanol to the agar slant of yeast or fungi. The sterile saline/octylphenoxy polyethoxy ethanol solution is then agitated with a sterile swab to suspend the microorganism grown on the slant. Each resulting suspension is diluted into sterile saline (1 part suspension to 9 parts sterile saline). Aliquots of these dilutions are placed in individual wells of Steer's Replicator and petri plates inoculated as previously described. The petri plates are incubated at 30° C. and read after 48 hours for yeast and 72 hours for fungi.

Proteus vulgaris (Pv) = assay: Minimum inhibitory concentration, nutrient agar, Proteus vulgaris; settings: 48 h
[2] = test system: Staphylococcus aureus (Sa); assay: Minimum inhibitory concentration, nutrient agar, Staphylococcus aureus; settings: 48 h
Escherichia coli (Ec) = assay: Minimum inhibitory concentration, nutrient agar, Escherichia coli; settings: 48 h
[3] = test system: Penicillium chrysogenum (PC); assay: Minimum inhibitory concentration, malt yeast agar, Penicillium chrysogenum; format: cell-based, Penicillium chrysogenum ATCC 9480; settings: read-out: Minimum Inhibitory Concentration, Pc
Description: as §1, §2

[4] = test system: Klebsiella pneumoniae (Kp); assay: Minimum inhibitory concentration, nutrient agar, Klebsiella pneumoniae; settings: 48 h
[5] = test system: Enterobacter aerogenes (Ea); assay: Minimum inhibitory concentration, nutrient agar, Enterobacter aerogenes; settings: Klebsiella aerogenes, 48 h
Trichoderma viride (Tv) = assay: Minimum inhibitory concentration, malt yeast agar, Trichoderma viride; format: cell-based, Trichoderma viride ATCC 8678; settings: read-out: Minimum Inhibitory Concentration, Tv
Description: as §1, §2

[6] = test system: Aureobasidium pullulan (Ap); assay: Minimum inhibitory concentration, malt yeast agar, Aureobasidium pullulan; format: cell-based, Aureobasidium pullulan ATCC 16622; settings: 30° C, 48 hours for yeast and 72 hours for fungi
Description: as §1, §2

Candida albicans (Ca) = assay: Minimum inhibitory concentration, malt yeast agar, Candida albicans; format: cell-based, Candida albicans ATCC 10231; settings: read-out: Minimum Inhibitory Concentration, Ca
Description: as §1, §2

[7] = test system: Pseudomonas aeruginosa (Pa); assay: Minimum inhibitory concentration, nutrient agar, Pseudomonas aeruginosa; format: cell-based, Pseudomonas aeruginosa ATCC 10145; settings: 30° C, 48 hours
Bacillus subtilis (Bs) = assay: Minimum inhibitory concentration, nutrient agar, Bacillus subtilis; settings: 48 h
[8] = test system: Pseudomonas aeruginosa (PRD-10); assay: Minimum inhibitory concentration, nutrient agar, Pseudomonas aeruginosa PRD-10; settings: 48 h
[9] = test system: Salmonella choleraesuis (Sc); assay: Minimum inhibitory concentration, nutrient agar, Salmonella choleraesuis; format: cell-based, Salmonella choleraesuis ATCC 10708; settings: Salmonella enterica, 30° C, 48 hours
Fusarium oxysporum (Of) = assay: Minimum inhibitory concentration, malt yeast agar, Fusarium oxysporum; format: cell-based, Fusarium oxysporum ATCC 48112; settings: 30° C, 72 hours (fungi), read-out: Minimum Inhibitory Concentration, Fo
Description: as §1, §2

Aspergillus niger (An) = assay: Minimum inhibitory concentration, malt yeast agar, Aspergillus niger; format: cell-based, Aspergillus niger ATCC 16404; settings: 30° C, 72 hours (fungi)
Description: as §1, §2

[10] = pH 6.8, read-out: Minimum inhibitory Concentration, Pv
[11] = pH 8.2, read-out: Minimum inhibitory Concentration, Pv
[12] = pH 6.8, read-out: Minimum inhibitory Concentration, Sa
[13] = pH 8.2, read-out: Minimum inhibitory Concentration, Sa
[14] = pH 6.8, read-out: Minimum inhibitory Concentration, Ec
[15] = pH 8.2, read-out: Minimum inhibitory Concentration, Ec
[16] = malt yeast agar, 30° C, 72 hours (fungi)
[17] = pH 6.8, read-out: Minimum inhibitory Concentration, Kp
[18] = pH 8.2, read-out: Minimum inhibitory Concentration, Kp
[19] = pH 6.8, read-out: Minimum inhibitory Concentration, Ea
[20] = pH 8.2, read-out: Minimum inhibitory Concentration, Ea
[21] = pH 6.8, read-out: Minimum inhibitory Concentration, Bs
[22] = pH 8.2, read-out: Minimum inhibitory Concentration, Bs
[23] = pH 6.8, read-out: Minimum inhibitory Concentration, PRD
[24] = pH 8.2, read-out: Minimum inhibitory Concentration, PRD
[25] = malt yeast agar, 30° C, 48 hours (yeast)

SMILES	MIC (Proteus vulgaris (Pv); [10])	MIC (Proteus vulgaris (Pv); [11])	MIC [2, 12]	MIC [2, 13]	MIC (Escherichia coli (Ec); [14])	MIC (Escherichia coli (Ec); [15])	MIC [3, 16]	MIC [4, 17]	MIC [4, 18]	MIC [5, 19]	MIC [5, 20]	MIC [6]	MIC ([7]; pH 6.8, nutrient agar)	MIC ([7]; pH 8.2, nutrient agar)	MIC (Bacillus subtilis (Bs); [21])	MIC (Bacillus subtilis (Bs); [22])	MIC [8, 23]	MIC [8, 24]	MIC ([9]; pH 6.8, nutrient agar)	MIC ([9]; pH 8.2, nutrient agar)	also measured
CCCCCCn1c(=O)c2sc3nsnc3sc=2c1=O [V, 6-n-Hexyl-5H-Pyrrolo (3',4':5,6)(1,4)dithiino-(2,3-C)(1,2,5)thiadiazole-5,7(6H) -dione]	> 500 µg/mL	> 500 µg/mL	< 10 µg/mL	< 10 µg/mL	> 500 µg/mL	> 500 µg/mL	25 µg/mL (≈ 76.3 µM)	> 500 µg/mL	> 500 µg/mL	> 500 µg/mL	> 500 µg/mL	25 µg/mL (≈ 76.3 µM)	> 500 µg/mL	> 500 µg/mL	< 10 µg/mL	25 µg/mL (≈ 76.3 µM)	> 500 µg/mL	> 500 µg/mL	> 500 µg/mL	> 500 µg/mL	MIC ([1]; 48 h): 25 µg/mL (≈ 76.3 µM); MIC (Trichoderma viride (Tv); 72 h): 50 µg/mL (≈ 153 µM); MIC (Candida albicans (Ca); 48 h): 25 µg/mL (≈ 76.3 µM)
CCn1c(=O)c2sc3nsnc3sc=2c1=O [III, 6-Ethyl-5H-Pyrrolo(3',4':5,6)(1,4)dithiino-(2,3-C)(1,2,5)thiadiazole-5,7(6H) -dione]	50 µg/mL (≈ 184 µM)	> 500 µg/mL	50 µg/mL (≈ 184 µM)	250 µg/mL (≈ 921 µM)	50 µg/mL (≈ 184 µM)	> 500 µg/mL	25 µg/mL (≈ 92.1 µM)	500 µg/mL (≈ 1840 µM)	> 500 µg/mL	> 500 µg/mL	> 500 µg/mL	< 10 µg/mL	> 500 µg/mL	> 500 µg/mL	25 µg/mL (≈ 92.1 µM)	100 µg/mL (≈ 369 µM)	> 500 µg/mL	> 500 µg/mL	250 µg/mL (≈ 921 µM)	> 500 µg/mL	MIC [1, 25]: < 10 µg/mL; MIC (Trichoderma viride (Tv); [16]): 500 µg/mL (≈ 1840 µM); MIC (Candida albicans (Ca); [25]): < 10 µg/mL; MIC (Fusarium oxysporum (Of)): 250 µg/mL (≈ 921 µM)
O=c1c2sc3nsnc3sc=2c(=O)n1CCc1ccccc1 [VII, 6-(2-Phenethyl)-5H-Pyrrolo(3',4':5,6)(1,4)dithiino-(2,3-C)(1,2,5)thiadiazole-5,7(6H)-dione]	> 500 µg/mL	> 500 µg/mL	> 500 µg/mL	> 500 µg/mL	> 500 µg/mL	> 500 µg/mL	> 500 µg/mL	> 500 µg/mL	> 500 µg/mL	> 500 µg/mL	> 500 µg/mL	100 µg/mL (≈ 288 µM)	> 500 µg/mL	> 500 µg/mL	> 500 µg/mL	> 500 µg/mL	> 500 µg/mL	> 500 µg/mL	> 500 µg/mL	> 500 µg/mL	MIC (Aspergillus niger (An)): 100 µg/mL (≈ 288 µM); MIC [1, 25]: 250 µg/mL (≈ 720 µM); MIC (Trichoderma viride (Tv); [16]): > 500 µg/mL; MIC (Candida albicans (Ca); [25]): > 500 µg/mL; MIC (Fusarium oxysporum (Of)): > 500 µg/mL
Cn1c(=O)c2sc3nsnc3sc=2c1=O [II, 6-Methyl-5H-Pyrrolo (3',4':5,6)(1,4)dithiino-(2,3-C)(1,2,5)thiadiazole-5,7(6H) -dione]	25 µg/mL (≈ 97.2 µM)	> 500 µg/mL	50 µg/mL (≈ 194 µM)	250 µg/mL (≈ 972 µM)	50 µg/mL (≈ 194 µM)	> 500 µg/mL	< 1 µg/mL	250 µg/mL (≈ 972 µM)	> 500 µg/mL	> 500 µg/mL	> 500 µg/mL	< 1 µg/mL	> 500 µg/mL	> 500 µg/mL	< 10 µg/mL	250 µg/mL (≈ 972 µM)	> 500 µg/mL	> 500 µg/mL	100 µg/mL (≈ 389 µM)	> 500 µg/mL	MIC (Aspergillus niger (An)): < 1 µg/mL; MIC [1, 25]: < 1 µg/mL; MIC (Trichoderma viride (Tv); [16]): < 1 µg/mL; MIC (Candida albicans (Ca); [25]): < 1 µg/mL; MIC (Fusarium oxysporum (Of)): < 1 µg/mL
O=c1c2sc3nsnc3sc=2c(=O)n1-c1ccccc1 [VI, 6-Phenyl-5H-Pyrrolo(3',4':5,6)(1,4)dithiino-(2,3-C)(1,2,5)thiadiazole-5,7 (6H) -dione]	> 500 µg/mL	> 500 µg/mL	25 µg/mL (≈ 78.3 µM)	50 µg/mL (≈ 157 µM)	> 500 µg/mL	> 500 µg/mL		> 500 µg/mL	> 500 µg/mL	> 500 µg/mL	> 500 µg/mL	< 10 µg/mL	> 500 µg/mL	> 500 µg/mL	< 10 µg/mL	100 µg/mL (≈ 313 µM)	> 500 µg/mL	> 500 µg/mL	> 500 µg/mL	> 500 µg/mL	MIC (Aspergillus niger (An)): < 10 µg/mL; MIC [1, 25]: 100 µg/mL (≈ 313 µM); MIC ([3]; 72 h): < 10 µg/mL; MIC (Trichoderma viride (Tv); [16]): 500 µg/mL (≈ 1570 µM); MIC (Candida albicans (Ca); [25]): 250 µg/mL (≈ 783 µM); MIC (Fusarium oxysporum (Of)): 250 µg/mL (≈ 783 µM)

— patent US5633219A, “5H-pyrrolo(3',4':5,6)(1,4)dithiin o(2,3-C)(1,2,5)thiadiazole-5,7(6H)-dione, compositions containing them and their use as antimicrobial and marine antifouling agents” (The Dow Chemical Company, priority 1996, dated 1997)
